According to US20150291645A1, “ISOACTEOSIDE DERIVATIVE AND USE THEREOF” (Sinphar Pharmaceutical Co., Ltd., priority 2014, published 2015):

Experiments:
β-amyloid peptides (Aβ) = settings: position of the caffeoyl group (sixth vs fourth), WO 2011/157059 A1; cited from earlier work
[1] = system: Aβ40 in SH-SY5Y-APP695 cell medium; assay: Inhibiting Aβ40 accumulation in culture medium of SH-SY5Y-APP695 cells (Human Aβ1-40 immunoassay, with MTT); type: cell-based; settings: for effects of inhibiting Aβ40 accumulation: preliminary screening at lower concentration (10 and 20 μM), 24 hours
Description: Experimental method: Human neuroblastoma cell (SH-SY5Y-APP695), which expresses Swedish APP695 mutation, was incubated in a 3.5-cm culture dish until the cell concentration reached 90% full. When passage, each well of a 24-well plate was seeded with 4×10^5 cells. The culture medium was replaced with 300 μL of chemical-defined medium, which is a DMEM/F12 medium including 5 mM of Hepes buffer, 0.6% of glucose, 3 mM of NaHCO3, […], 100 μg/mL of transferrin, 20 nM of progesterone, 60 μM putrescine, 30 nM of sodium selenite, and 2 μg/mL of heparin, the next day. 3 μL of the testing sample was added into each well, and each concentration of each sample included 4 groups. After the cells were placed in an incubator (37° C., 5% CO2) and treated with the samples for 24 hours, the culture medium was collected and analyzed the amount of Aβ40 in the culture medium after treated by the samples through Human Aβ1-40 Immunoassay kits (Cat.KHB3482, Life Technologies). The cells treated by the samples were analyzed by MTT assay to evaluate the toxicity to the cells caused by sample treatment.
The testing concentrations of Sample 1 were 5 μM and 10 μM, and the testing concentrations of Samples 2-8 were 10 μM and 20 μM. The amount of Aβ40 in a SH-SY5Y-APP695 cell medium that there was no sample added as a control and set to 100%, and the amounts of Aβ40 in the medium after respectively treated by the testing samples were compared to the control and expressed in percentage. β-secretase inhibitor (β-SI) was used as a positive control. The experiment results are shown in FIGS. 1A-1D, which FIGS. 1A and 1C are result diagrams of the samples in inhibiting Aβ40 accumulation, and FIGS. 1B and 1D are result diagrams of the cell viability after treated by the samples. The results shown in FIGS. 1A-1D are mean±standard error of four experimental groups (n=4), and the statistical differences between the control and the testing samples were analyzed by Dunnett's multiple comparison test, which “*” represented p<0.05; “**” represented p<0.01; “***” represented p<0.001; and “****” represented p<0.0001.
Based on the experiment results of Experimental example 1, Sample 3, 4, and 6 having efficacy of inhibiting Aβ40 accumulation were selected. The testing concentrations of the samples were increased to 20, 50, and 100 μM, and were experimented using the method of Experimental example 1. FIG. 2A is a result diagram of the samples in inhibiting Aβ40 accumulation, and FIG. 2B is a result diagram of the cell viability after treated by the samples. The results shown in FIGS. 2A-2B are mean±standard error of four experimental groups (n=4), and the statistical differences between the control and the testing samples were analyzed by Dunnett's multiple comparison test, which “*” represented p<0.05; “**” represented p<0.01; “***” represented p<0.001; and “****” represented p<0.0001.

[2] = system: Human retinal pigment epithelium cells (ARPE-19); assay: Protection of ARPE-19 cells against tert-butyl hydroperoxide oxidative damage (MTT); type: cell-based; settings: 24 hours; for cell viability compared to the control / inhibition of human retinal pigment epithelium cell death: with tBHP, Sample 2 at 6.25, 12.5, 25 μM, Sample 8 at 8.75, 17.5, 35 μM, FIGS. 6A-6B
Description: Human retinal pigment epithelium cells (ARPE-19) were incubated in a DMEM/F12 cell culture medium (Life Technologies) containing 10% of fetal bovine serum (FBS), and were passaged using a 96-well plate after the cell concentration reached 90% full, which each well was seeded with 4.5×10^3 cells. Next day, Samples 2 and 8 were diluted with dimethyl sulfoxide (DMSO) to about 200 times of test concentration, and after that, appropriate amount of DMEM/F12 cell culture medium containing 5% fetal bovine serum was added and diluted to twice test concentration. Then, the resultant was mixed with 0.2 mM of tert-butyl hydroperoxide (tBHP, Sigma) in equal proportions to reach the test concentration (containing 0.5% of dimethyl sulfoxide). The diluted sample was added to the plate with the cells, which was placed in an incubator reacted for 24 hours, and the cell viability was analyzed by MTT solution. The absorbance was measured at a wavelength of 570 nm, and the cells not being treated by the medicine was a control, and the average absorbance of which was set to 100%. The cell viability of the cells being treated by the medicine was calculate by the following formula based on the measured absorbance:
Cell viability=(absorbance of the experimental group/average absorbance of the control)×100%.
The experiment results are shown in FIGS. 6A-6B, which show mean±standard error of six experimental groups (n=6). The statistical differences between damaging group (i.e. accepting damaging medicine, and no protective medicine) and testing medicine groups and the control group (Control, containing 0.5% of DMSO) were analyzed by Dunnett's multiple comparison test, which “*” represented p<0.05; “**” represented p<0.01; “***” represented p<0.001; and “****” represented p<0.0001.

Aβ40 = Aβ40 (Homo sapiens, UniProt P05067); assay: Aβ40 aggregation, thioflavin T assay; type: biochemical; settings: for inhibition at 20 µM / inhibition at 200 µM: 4 hours 37° C.; for inhibition at 20 µM: FIG. 3A; for inhibition at 200 µM: FIG. 3B; for inhibit Aβ40 accumulation (ThT assay): summary of Experimental example 3
Description: Aβ40 aggregation: The Aβ40 stock was redissloved in DMSO to 10 mg/mL. Each group included 0.5 μL of 10 mg/mL Aβ40 and 4.5 μL of the testing sample diluted with Dulbecco's Phosphate-Buffered Saline (D-PBS). The concentrations of Sample 1 were 10 μM and 100 μM, and the concentrations of Sample 2-8 were 20 μM and 200 μM. The total reaction volume was 5 μL, and each concentration of each sample included 6 groups. After incubating in a 37° C. incubator for 4 hours, 200 μL of thioflavin T working solution (ThT working solution) was added and mixed thoroughly, which the thioflavin T working solution was 10 μM of thioflavin T dissolving in potassium phosphate buffer (PB buffer, pH 6.0). 200 μL of the mixture was placed into a black, clear bottom 96-well plate, and the ThT fluorescence intensity (Ex: 440 nm, Em: 482 nm) was measured to determine the level of Aβ40 aggregation. This experimental example used thioflavin T assay (ThT assay) to evaluate the level of Aβ40 aggregation. Since ThT and Congo red derivatives can form bonds with aggregated form of Aβ protein, the level of Aβ aggregation is higher when the amount of bonded ThT is more. By detecting the variation in the amount of ThT, the change in the level of Aβ aggregation can be estimated. The value of not reacting with any sample (i.e. only containing 0.5 μL of Aβ40 and 4.5 μL of D-PBS, which the final concentration of Aβ40 was 1 mg/mL) was a control and set to 100%, and isoacteoside (IsoA) was used as a positive control. The values of the testing samples were compared to the control and expressed in percentage, and the experiment results are shown in FIGS. 3A-3B. The results shown in FIGS. 3A-3B were mean±standard error of six experimental groups (n=6), and the statistical differences between the control and the testing samples were analyzed by Dunnett's multiple comparison test, which “*” represented p<0.05; “**” represented p<0.01; “***” represented p<0.001; and “****” represented p<0.0001.
(§1) The concentration of Sample 1 was 10 μM, the concentration of Samples 2-9 was 20 μM, and the concentration of IsoA was 10 μg/mL. The measured value of the control without adding any sample was set to 100%, and other values were adjusted accordingly. […] The concentration of Sample 1 was 100 μM, the concentration of Samples 2-9 was 200 μM, and the concentration of IsoA was 100 μg/mL. The measured value of the control without adding any sample was set to 100%, and other values were adjusted accordingly.

Aβ42 = biological target: T1, Aβ42 (Homo sapiens, UniProt P05067); assay: Aβ42 aggregation, thioflavin T assay; type: biochemical; settings: for inhibition at 20 µM / inhibition at 200 µM: 30 minutes 37° C.; for inhibition at 20 µM: FIG. 4A; for inhibit Aβ42 accumulation (ThT assay): summary of Experimental example 4; for inhibition at 200 µM: FIG. 4B
T1 construct: Aβ42 was redissloved in DMSO to 2.5 mg/mL
Description: Experimental method: Aβ42 was redissloved in DMSO to 2.5 mg/mL, and Samples 1-9 were diluted with D-PBS to appropriate concentrations. The concentrations of Sample 1 were 10 μM and 100 μM, the concentrations of Sample 2-9 were 20 μM and 200 μM, and the concentrations of IsoA were 10 μg/mL and 100 μg/mL. Each reaction included 1 μL of Aβ42 (final concentration was 0.25 mg/mL) and 9 μL of the testing sample, which each concentration of each sample included 8 groups, and was placed at 37° C. reacting for 30 minutes after thoroughly mixed. 200 μL of Thioflavin T working solution was added and mixed thoroughly after the reaction completed, 200 μL of the which was placed into a black, clear bottom 96-well plate, and the ThT fluorescence intensity (Ex: 440 nm, Em: 482 nm) was measured to determine the level of Aβ42 aggregation. The value of not reacting with any sample (i.e. only containing 1 μL of Aβ42 and 9 μL of D-PBS, which the final concentration of Aβ42 was 0.25 mg/mL) was a control and set to 100%, and isoacteoside (IsoA) was used as a positive control. The values of the samples were compared to the control and expressed in percentage. The experiment results are shown in FIGS. 4A-4B, which show mean±standard error of eight experimental groups (n=8), and the statistical differences between the control and the testing samples were analyzed by Dunnett's multiple comparison test, which “*” represented p<0.05; “**” represented p<0.01; “***” represented p<0.001; and “****” represented p<0.0001.
as §1, with “μg/mL. The level of Aβ42 accumulation was measured by ThT assay, which the measured value” for “μg/mL. The measured value”

[3] = summary of Experimental examples 1 and 2

T1 sequence (P05067 672-713 limits assumed): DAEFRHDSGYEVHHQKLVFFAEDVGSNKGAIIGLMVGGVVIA
Chain of Aβ40 (P05067 672-711 limits assumed): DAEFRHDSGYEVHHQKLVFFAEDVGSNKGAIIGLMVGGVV

Row | Compound | effects of inhibiting Aβ40 accumulation ([1]; FIGS. 1A-1D) | inhibit Aβ40 formation in cell [1, 3] | inhibition at 20 µM (Aβ40) [%] | inhibition at 200 µM (Aβ40) [%] | inhibit Aβ40 accumulation (ThT assay) (Aβ40) | inhibition at 20 µM (Aβ42) [%] | inhibit Aβ42 accumulation (ThT assay) (Aβ42) | also measured
1 | C[C@@H]1O[C@@H](O[C@@H]2[C@@H](O)[C@H](OCCc3ccc(O)c(O)c3)O[C@H](COC(=O)/C=C/c3ccc(O)c(O)c3)[C@H]2O)[C@H](O)[C@H](O)[C@H]1O [isoacteoside] |  |  |  |  |  |  |  | activity of inhibiting β-amyloid peptides (Aβ) accumulation (β-amyloid peptides (Aβ)): better
2 | O=C(/C=C/c1ccc(OCc2ccccc2)c(OCc2ccccc2)c1)OCC1OC(OCCc2cccc(OCc3ccccc3)c2)C(O)C(O)C1O (stereo not drawn) [Sample 6] | had effects of inhibiting Aβ40 accumulation | could inhibit Aβ40 formation in cell |  |  |  |  |  | inhibition at 50 µM ([1]; Homo sapiens, 50 μM, condition of not affecting the cytotoxicity, FIGS. 2A-2B): ~40%; comparison among samples, Aβ40 formation in cell [1, 3]: had the best result
3 | O=C(/C=C/c1ccc(OCc2ccccc2)c(OCc2ccccc2)c1)OCC1OC(OCCc2ccccc2)C(O)C(O)C1O (stereo not drawn) [Sample 3] | had effects of inhibiting Aβ40 accumulation | could inhibit Aβ40 formation in cell |  |  |  |  |  | inhibition at 20 µM ([1]; Homo sapiens, 20 μM, condition of not affecting the cytotoxicity, FIGS. 2A-2B): ~20%; comparison among samples, inhibiting Aβ40 accumulation ([1]; preliminary screening, FIGS. 1A-1D): had the best result of inhibiting Aβ40 accumulation
4 | O=C(/C=C/c1ccc(O)c(O)c1)OCC1OC(OCCc2ccc(OCc3ccccc3)cc2)C(O)C(O)C1O (stereo not drawn) [Sample 8] |  |  | ~30 | ≤ 70 | could effectively inhibit | ~60 | could effectively inhibit | cell viability compared to the control [2]: even better then the control; inhibition of human retinal pigment epithelium cell death [2]: could be significantly inhibited; comparison among samples, Aβ40 accumulation (ThT assay) (Aβ40; summary): had the best result; comparison among samples, Aβ42 accumulation (ThT assay) (Aβ42; summary): had the best result
5 | CC(=O)Oc1ccc(/C=C/C(=O)OCC2OC(OCCc3ccc(Cl)cc3)C(OC(C)=O)C(OC(C)=O)C2OC(C)=O)cc1OC(C)=O (stereo not drawn) [Sample 2] |  |  | ~20 | ~20 | could effectively inhibit | ~20 | could effectively inhibit | cell viability compared to the control [2]: even better then the control; inhibition of human retinal pigment epithelium cell death [2]: could be significantly inhibited; inhibition at 200 µM (Aβ42): ~40%
6 | CC(C)(C)OO [tBHP, tert-butyl hydroperoxide, reference compound] |  |  |  |  |  |  |  | cell death ([2]; tBHP alone (0.2 mM mixed in equal proportions)): 30%-40%
7 | O=C(/C=C/c1ccc(O)c(O)c1)OCC1OC(OCCc2ccccc2)C(O)C(O)C1O (stereo not drawn) [Sample 4] | had effects of inhibiting Aβ40 accumulation | could inhibit Aβ40 formation in cell | ~30 | ~20 | could effectively inhibit | ~50 | could effectively inhibit | effect of increasing the sample concentration on inhibiting Aβ accumulation ([1]; 20, 50 and 100 μM, FIGS. 2A-2B): could not further enhance the efficacy of inhibiting Aβ accumulation; inhibition at 200 µM (Aβ42): ~70%
